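Dose response: 5 concentrations. Exposure: 48 h. Format: 96-well plates. Endpoint: linear interpolation; highest concentration if not reached. GI50 marks 50% less growth. TGI denotes the concentration required for complete inhibition of growth.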
Key:
Assay in all cases: NCI tumour cell line growth inhibition, 48 h
K-562 leukemia = tested on: K-562 leukemia
EKVX NSCLC = tested on: EKVX NSCLC
OVCAR-8 ovarian = tested on: OVCAR-8 ovarian
SR leukemia = tested on: SR leukemia
OVCAR-4 ovarian = tested on: OVCAR-4 ovarian
U251 CNS = tested on: U251 CNS
UO-31 renal = tested on: UO-31 renal
UACC-257 melanoma = tested on: UACC-257 melanoma
UACC-62 melanoma = tested on: UACC-62 melanoma
SK-MEL-5 melanoma = tested on: SK-MEL-5 melanoma
CCRF-CEM leukemia = tested on: CCRF-CEM leukemia
T-47D breast = tested on: T-47D breast
NCI-H460 lung = tested on: NCI-H460 lung
COLO 205 colon = tested on: COLO 205 colon
MCF7 breast = tested on: MCF7 breast
DU-145 prostate = tested on: DU-145 prostate
HCT-15 colon = tested on: HCT-15 colon
A549 NSCLC = tested on: A549 NSCLC
SNB-75 CNS = tested on: SNB-75 CNS
RPMI-8226 leukemia = tested on: RPMI-8226 leukemia
NCI-H226 lung = tested on: NCI-H226 lung
SK-OV-3 ovarian = tested on: SK-OV-3 ovarian
786-0 renal = tested on: 786-0 renal
SF-539 CNS = tested on: SF-539 CNS
SNB-19 CNS = tested on: SNB-19 CNS
HT29 colon = tested on: HT29 colon
PC-3 prostate = tested on: PC-3 prostate
NCI/ADR-RES ovarian = tested on: NCI/ADR-RES ovarian
HCT-116 colon = tested on: HCT-116 colon
SF-268 CNS = tested on: SF-268 CNS
OVCAR-3 ovarian = tested on: OVCAR-3 ovarian
ACHN renal = tested on: ACHN renal
SK-MEL-2 melanoma = tested on: SK-MEL-2 melanoma
RXF 393 renal = tested on: RXF 393 renal
HOP-92 NSCLC = tested on: HOP-92 NSCLC
HS 578T breast = tested on: HS 578T breast
SN12C renal = tested on: SN12C renal
MALME-3M melanoma = tested on: MALME-3M melanoma
TK-10 renal = tested on: TK-10 renal
HL-60(TB) leukemia = tested on: HL-60(TB) leukemia
MDA-MB-435 = tested on: MDA-MB-435
SW-620 colon = tested on: SW-620 colon
OVCAR-5 ovarian = tested on: OVCAR-5 ovarian
SK-MEL-28 melanoma = tested on: SK-MEL-28 melanoma
HCC-2998 colon = tested on: HCC-2998 colon
NCI-H522 lung = tested on: NCI-H522 lung
A498 renal = tested on: A498 renal
LOX IMVI melanoma = tested on: LOX IMVI melanoma
KM12 colon = tested on: KM12 colon
NCI-H23 lung = tested on: NCI-H23 lung
MOLT-4 leukemia = tested on: MOLT-4 leukemia
BT-549 breast = tested on: BT-549 breast
IGROV1 ovarian = tested on: IGROV1 ovarian
MDA-MB-231 breast = tested on: MDA-MB-231 breast
CAKI-1 renal = tested on: CAKI-1 renal
HOP-62 NSCLC = tested on: HOP-62 NSCLC
SF-295 CNS = tested on: SF-295 CNS
M14 melanoma = tested on: M14 melanoma

SMILES: O=C1Nc2cc(-c3cccc(O)c3)ccc2/C1=C/c1ccc[nH]1
- GI50 (K-562 leukemia): 355 nM
- TGI (K-562 leukemia): > 100000 nM
- GI50 (EKVX NSCLC): 121 nM
- TGI (EKVX NSCLC): 17000 nM
- GI50 (OVCAR-8 ovarian): 3450 nM
- TGI (OVCAR-8 ovarian): 49200 nM
- GI50 (SR leukemia): 28.2 nM
- TGI (SR leukemia): 1820 nM
- GI50 (OVCAR-4 ovarian): 305 nM
- TGI (OVCAR-4 ovarian): 16200 nM
- GI50 (U251 CNS): 2380 nM
- TGI (U251 CNS): 12100 nM
- GI50 (UO-31 renal): 359 nM
- TGI (UO-31 renal): 3780 nM
- GI50 (UACC-257 melanoma): 2810 nM
- TGI (UACC-257 melanoma): 8530 nM
- GI50 (UACC-62 melanoma): 2630 nM
- TGI (UACC-62 melanoma): 8890 nM
- GI50 (SK-MEL-5 melanoma): 1600 nM
- TGI (SK-MEL-5 melanoma): 3320 nM
- GI50 (CCRF-CEM leukemia): 2270 nM
- TGI (CCRF-CEM leukemia): > 100000 nM
- GI50 (T-47D breast): 170 nM
- TGI (T-47D breast): 472 nM
- GI50 (NCI-H460 lung): 460 nM
- TGI (NCI-H460 lung): 3960 nM
- GI50 (COLO 205 colon): 4370 nM
- TGI (COLO 205 colon): 28600 nM
- GI50 (MCF7 breast): 257 nM
- TGI (MCF7 breast): 2440 nM
- GI50 (DU-145 prostate): 3160 nM
- TGI (DU-145 prostate): 23600 nM
- GI50 (HCT-15 colon): 271 nM
- TGI (HCT-15 colon): 12700 nM
- GI50 (A549 NSCLC): 3050 nM
- TGI (A549 NSCLC): 11800 nM
- GI50 (SNB-75 CNS): 1310 nM
- TGI (SNB-75 CNS): 4530 nM
- GI50 (RPMI-8226 leukemia): 588 nM
- TGI (RPMI-8226 leukemia): 5830 nM
- GI50 (NCI-H226 lung): 2790 nM
- TGI (NCI-H226 lung): 11400 nM
- GI50 (SK-OV-3 ovarian): 655 nM
- TGI (SK-OV-3 ovarian): 5220 nM
- GI50 (786-0 renal): 2220 nM
- TGI (786-0 renal): 7320 nM
- GI50 (SF-539 CNS): 1120 nM
- TGI (SF-539 CNS): 2490 nM
- GI50 (SNB-19 CNS): 3500 nM
- TGI (SNB-19 CNS): 15100 nM
- GI50 (HT29 colon): 4710 nM
- TGI (HT29 colon): 30600 nM
- GI50 (PC-3 prostate): 2530 nM
- TGI (PC-3 prostate): 10700 nM
- GI50 (NCI/ADR-RES ovarian): 2510 nM
- TGI (NCI/ADR-RES ovarian): 12500 nM
- GI50 (HCT-116 colon): 1320 nM
- TGI (HCT-116 colon): 3440 nM
- GI50 (SF-268 CNS): 1760 nM
- TGI (SF-268 CNS): 8040 nM
- GI50 (OVCAR-3 ovarian): 1430 nM
- TGI (OVCAR-3 ovarian): 5850 nM
- GI50 (ACHN renal): 515 nM
- TGI (ACHN renal): 5500 nM
- GI50 (SK-MEL-2 melanoma): 1480 nM
- TGI (SK-MEL-2 melanoma): 6770 nM
- GI50 (RXF 393 renal): 476 nM
- TGI (RXF 393 renal): 2730 nM
- GI50 (HOP-92 NSCLC): 1900 nM
- TGI (HOP-92 NSCLC): 6260 nM
- GI50 (HS 578T breast): 1510 nM
- TGI (HS 578T breast): 5730 nM
- GI50 (SN12C renal): 1600 nM
- TGI (SN12C renal): 7110 nM
- GI50 (MALME-3M melanoma): 1340 nM
- TGI (MALME-3M melanoma): 3710 nM
- GI50 (TK-10 renal): 833 nM
- TGI (TK-10 renal): 9190 nM
- GI50 (HL-60(TB) leukemia): 1510 nM
- TGI (HL-60(TB) leukemia): 7050 nM
- GI50 (MDA-MB-435): 391 nM
- TGI (MDA-MB-435): 1660 nM
- GI50 (SW-620 colon): 1170 nM
- TGI (SW-620 colon): 8270 nM
- GI50 (OVCAR-5 ovarian): 2890 nM
- TGI (OVCAR-5 ovarian): 15400 nM
- GI50 (SK-MEL-28 melanoma): 1730 nM
- TGI (SK-MEL-28 melanoma): 3590 nM
- GI50 (HCC-2998 colon): 2030 nM
- TGI (HCC-2998 colon): 11800 nM
- GI50 (NCI-H522 lung): 1600 nM
- TGI (NCI-H522 lung): 14100 nM
- GI50 (A498 renal): 1480 nM
- TGI (A498 renal): 4100 nM
- GI50 (LOX IMVI melanoma): 1310 nM
- TGI (LOX IMVI melanoma): 3110 nM
- GI50 (KM12 colon): 225 nM
- TGI (KM12 colon): 2520 nM
- GI50 (NCI-H23 lung): 182 nM
- TGI (NCI-H23 lung): 4560 nM
- GI50 (MOLT-4 leukemia): 1070 nM
- TGI (MOLT-4 leukemia): 33600 nM
- GI50 (BT-549 breast): 506 nM
- TGI (BT-549 breast): 3960 nM
- GI50 (IGROV1 ovarian): 1010 nM
- TGI (IGROV1 ovarian): 10100 nM
- GI50 (MDA-MB-231 breast): 163 nM
- TGI (MDA-MB-231 breast): 7390 nM
- GI50 (CAKI-1 renal): 1790 nM
- TGI (CAKI-1 renal): 5910 nM
- GI50 (HOP-62 NSCLC): 2300 nM
- TGI (HOP-62 NSCLC): 8550 nM
- GI50 (SF-295 CNS): 2340 nM
- TGI (SF-295 CNS): 5230 nM
- GI50 (M14 melanoma): 1680 nM
- TGI (M14 melanoma): 3540 nM
